Tested on: LXRLI1 gene
Test: Microarray gene expression profiles of cells treated with LXR-ligand
Type: cell-based, human
Settings: THP-1 cells, primary macrophages, primary hepatocytes; APD 0.001-0.1 μM, 6-24 hours; treated vs. untreated
Description: To identify human transcripts up or down regulated by LXR-ligand, FlexJet™ microarrays representing either 25,000 Unigene clusters were hybridized to a mixture of cRNAs prepared from samples obtained from untreated versus treated cells of various types. Microarrays, and materials and methods for preparing hybridization samples from purified RNA, hybridizing the microarrays, detecting hybridization signals, and data analysis are described in van't Veer,iet al. (2002 Nature 415:530-536) and Hughes, et al. (2001 Nature Biotechnol. 19:342-7).
Experiments were conducted comparing gene expression profiles of primary hepatocytes, primary human macrophage and THP-1 cells treated with a variety of compounds known to activate the LXR and PPAR nuclear receptor regulated pathways. Additional compound treatments were performed which are known to cause an increase, or decrease in cellular cholesterol. All cells were cultured at 37° C. in a humidified atmosphere consisting of 95% air and 5% carbon dioxide. For each cell sample, mRNA was extracted and purified using Trizol reagent (Invitrogen Corporation, Carlsbad, Calif.) followed by DNAse treatment, as described by Fu, et al. (2001 J. Biol. Chem. 276:38378-87). For the primary hepatocytes, the Trizol purification was followed by a RNasy DNAase (Promega Corp, Madison, Wis.) step per the manufacturer's instructions. […]

SMILES: CC(=O)Oc1ccc2c(c1)[C@@]1(C)CCC[C@](C)(C(=O)OC(=O)[C@@]3(C)CCC[C@]4(C)c5cc(OC(C)=O)ccc5CC[C@@H]34)[C@@H]1CC2 [APD, acetylpodocarpic dimer]
- Transcription of the LXRLI1 gene: induced

Source: patent US20040023276A1, “LXR-ligand induced genes and proteins” (priority 2002, published 2004)
